The supplement of paper PMC11061612

Legend:
Assay in all cases: Bliss excess, mean over the matrix (fraction); higher = more synergy
[1] = system: A2780 (Ovarian Carcinoma)
Outline: (§1)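 Bliss excess equals the observed combination effect minus the expected value EA + EB − EA·EB, where EA and EB are the effects of each agent alone. Combination Emax is the second-highest inhibition within the matrix. Inhibition was scaled from CellTiter-Glo 2.0 luminescence, with 0 set by vehicle wells and 1 by blank wells, after 72 hours of two-drug dosing of cells plated in 1536-well plates.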

HCC70 (Breast Carcinoma) = system: HCC70 (Breast Carcinoma)
Outline: as §1

[2] = system: HCC1428 (Breast Carcinoma)
Outline: as §1

[3] = system: DMS-53 (Small Cell Lung Carcinoma)
Outline: as §1

[4] = system: JIMT-1 (Breast Carcinoma)
Outline: as §1

[5] = system: 22RV1 (Prostate Carcinoma)
Outline: as §1

[6] = system: HCC1395 (Breast Carcinoma)
Outline: as §1

A204 (Rhabdomyosarcoma) = system: A204 (Rhabdomyosarcoma)
Outline: as §1

[7] = system: EPLC-272H (Other Solid Carcinomas)
Outline: as §1

[8] = system: Jurkat (T-Lymphoblastic Leukemia)
Outline: as §1

[9] = system: CA46 (Burkitt's Lymphoma)
Outline: as §1

[10] = system: GA-10 (Burkitt's Lymphoma)
Outline: as §1

[11] = system: NCI-H2087 (Lung Adenocarcinoma)
Outline: as §1

RH-41 (Rhabdomyosarcoma) = system: RH-41 (Rhabdomyosarcoma)
Outline: as §1

[12] = system: NCI-H2228 (Lung Adenocarcinoma)
Outline: as §1

[13] = system: LS-411N (Colorectal Carcinoma)
Outline: as §1

[14] = system: JHU-022 (Oral Cavity Carcinoma)
Outline: as §1

[15] = system: SW620 (Colorectal Carcinoma)
Outline: as §1

WM1552C (Melanoma) = system: WM1552C (Melanoma)
Outline: as §1

[16] = system: OACp4C (Esophageal Adenocarcinoma)
Outline: as §1

Row | Compound | Bliss excess [1] | Bliss excess (HCC70 (Breast Carcinoma)) | Bliss excess [2] | Bliss excess [3] | Bliss excess [4] | Bliss excess [5] | Bliss excess [6] | Bliss excess (A204 (Rhabdomyosarcoma)) | Bliss excess [7] | Bliss excess [8] | Bliss excess [9] | Bliss excess [10] | Bliss excess [11] | Bliss excess (RH-41 (Rhabdomyosarcoma)) | Bliss excess [12] | Bliss excess [13] | Bliss excess [14] | Bliss excess [15] | Bliss excess (WM1552C (Melanoma)) | Bliss excess [16]
1 | COc1cccc(OCCCN)c1-c1cc(Nc2cnc(C#N)cn2)n[nH]1 [Prexasertib] + O=C(c1cc(Cc2n[nH]c(=O)c3ccccc23)ccc1F)N1CCN(C(=O)C2CC2)CC1 [Olaparib] (first compound max 1 µM, 7x7, partner max 10 µM) | -0.0298 | -0.0503 | 0.0501 | -0.0473 | -0.0182 | -0.072 | -0.0368 | -0.0675 | -0.0631 | -0.0054 | -0.192 | -0.0649 | -0.11 | -0.061 | -0.0834 | -0.271 | -0.0537 | -0.0457 | -0.134 | -0.0222
2 | CCc1c2c(nc3ccc(O)cc13)-c1cc3c(c(=O)n1C2)COC(=O)[C@]3(O)CC [SN-38] + CN(C)CCCOc1ccc(-c2ccc3ncc4c(c3c2)n(C2CCOCC2)c(=O)n4C)cn1 [AZD0156] (first compound max 0.3 µM, 7x7, partner max 1 µM) | -0.0099 | 0.0152 | -0.0584 | -0.0288 | 0.0056 | 0.0403 | -0.0024 | 0.0736 | 0.0536 | 0.059 | 0.0951 | 0.0494 | 0.0485 | -0.0913 | 0.0587 | 0.0079 | -0.0034 | 0.11 | 0.0013 | 0.0666
3 | Cn1cnc2c(F)c(Nc3ccc(Br)cc3Cl)c(C(=O)NOCCO)cc21 [Selumetinib] + C=CCn1c(=O)c2cnc(Nc3ccc(N4CCN(C)CC4)cc3)nc2n1-c1cccc(C(C)(C)O)n1 [AZD1775] (first compound max 10 µM, partner max 1 µM) | -0.0352 | 0.0361 | -0.0409 | -0.0174 | -0.0606 | 0.0454 | -0.0333 | -0.0511 | -0.0607 | -0.0309 | -0.0625 | -0.0321 | 0.0084 | -0.0189 | -0.0613 | -0.0554 | 0.0283 | -0.0198 | -0.0674 | -0.0357
4 | Cn1cnc2c(F)c(Nc3ccc(Br)cc3Cl)c(C(=O)NOCCO)cc21 [Selumetinib] + CC(C)n1c(=O)n(C)c2cnc3cc(F)c(-c4ccc(OCCCN5CCCCC5)nc4)cc3c21 [AZD1390] (first compound max 10 µM, 7x7, partner max 0.3 µM) | -0.0369 | 0.0225 | -0.0333 | -0.0267 | -0.0471 | -0.0538 | -0.0327 | -0.0567 | -0.0442 | -0.0321 | -0.006 | -0.0227 | -0.0541 | -0.0082 | -0.0477 | -0.0107 | 0.02 | -0.0102 | -0.0102 | 0.0048
5 | Cn1cnc2c(F)c(Nc3ccc(Br)cc3Cl)c(C(=O)NOCCO)cc21 [Selumetinib] + CCN(CCO)CCCOc1ccc2c(Nc3cc(CC(=O)Nc4cccc(F)c4)[nH]n3)ncnc2c1 [AZD2811] (first compound max 10 µM, 7x7, partner max 1 µM) | 0.0251 | 0.0138 | 0.0269 | -0.0629 | -0.0403 | -0.0797 | -0.008 | -0.0772 | 0.0426 | -0.0216 | -0.0093 | -0.0559 | -0.0497 | 0.0363 | -0.0357 | -0.0115 | 0.0079 | 0.0738 | -0.0694 | 0.0193
6 | Cn1cnc2c(F)c(Nc3ccc(Br)cc3Cl)c(C(=O)NOCCO)cc21 [Selumetinib] + C[C@@H]1COCCN1C2=NC(=NC(=C2)C3(CC3)[S@](=N)(=O)C)C4=C5C=CNC5=NC=C4 [AZD6738] (first compound max 10 µM, 7x7, partner max 10 µM) | 0.0429 | 0.0731 | -0.0527 | -0.0272 | -0.0853 | 0.0144 | -0.0128 | -0.0363 | -0.0497 | -0.0227 | -0.0159 | -0.0046 | -0.0057 | -0.0004 | -0.0098 | -0.0195 | -0.0175 | 0.0587 | -0.0591 | -0.0052
7 | CC(=O)Nc1cccc(-n2c(=O)n(C3CC3)c(=O)c3c(Nc4ccc(I)cc4F)n(C)c(=O)c(C)c32)c1 [Trametinib] + Cc1nc(-c2cn3c(n2)-c2ccc(-c4cnn(C(C)(C)C(N)=O)c4)cc2OCC3)n(C(C)C)n1 [Taselisib] (first compound max 1 µM, 7x7, partner max 10 µM) | 0.0164 | 0.149 | 0.0116 | 0.0285 | 0.11 | 0.0551 | 0.0616 | 0.149 | 0.041 | 0.0414 | 0.0404 | 0.0619 | 0.163 | 0.0419 | 0.0724 | 0.125 | 0.0194 | 0.0527 | 0.0903 | 0.0416
8 | CC1(C)CCC(CN2CCN(c3ccc(C(=O)NS(=O)(=O)c4ccc(NCC5CCOCC5)c([N+](=O)[O-])c4)c(Oc4cnc5[nH]ccc5c4)c3)CC2)=C(c2ccc(Cl)cc2)C1 [Venetoclax] + C1CN(CCC1(C(=O)N[C@@H](CCO)C2=CC=C(C=C2)Cl)N)C3=NC=NC4=C3C=CN4 [Capivasertib] (first compound max 1 µM, 7x7, partner max 3 µM) | -0.0223 | -0.0437 | -0.0377 | 0.0707 | -0.0836 | -0.0475 | -0.0806 | -0.0358 | -0.0465 | -0.016 | -0.0473 | -0.0614 | -0.0553 | 0.0441 | -0.0537 | -0.0139 | -0.0729 | -0.0511 | -0.0834 | -0.0062
9 | CC1(C)CCC(CN2CCN(c3ccc(C(=O)NS(=O)(=O)c4ccc(NCC5CCOCC5)c([N+](=O)[O-])c4)c(Oc4cnc5[nH]ccc5c4)c3)CC2)=C(c2ccc(Cl)cc2)C1 [Venetoclax] + C=CCn1c(=O)c2cnc(Nc3ccc(N4CCN(C)CC4)cc3)nc2n1-c1cccc(C(C)(C)O)n1 [AZD1775] (first compound max 1 µM, partner max 1 µM) | 0.0477 | 0.0562 | -0.0386 | 0.0804 | -0.0568 | 0.0156 | 0.0202 | -0.0433 | -0.025 | -0.0183 | -0.0322 | -0.0553 | -0.0408 | 0.0778 | -0.0602 | -0.0856 | -0.0218 | -0.0536 | 0.0354 | -0.03
10 | CC1(C)CCC(CN2CCN(c3ccc(C(=O)NS(=O)(=O)c4ccc(NCC5CCOCC5)c([N+](=O)[O-])c4)c(Oc4cnc5[nH]ccc5c4)c3)CC2)=C(c2ccc(Cl)cc2)C1 [Venetoclax] + CCN(CCO)CCCOc1ccc2c(Nc3cc(CC(=O)Nc4cccc(F)c4)[nH]n3)ncnc2c1 [AZD2811] (first compound max 1 µM, 7x7, partner max 1 µM) | 0.019 | -0.0223 | 0.118 | 0.069 | -0.0232 | -0.001 | -0.01 | 0.0005 | 0.0409 | 0.0202 | -0.0283 | 0.0033 | -0.0281 | 0.0561 | -0.039 | -0.0284 | -0.0139 | -0.0243 | -0.0804 | -0.0234
11 | CC1(C)CCC(CN2CCN(c3ccc(C(=O)NS(=O)(=O)c4ccc(NCC5CCOCC5)c([N+](=O)[O-])c4)c(Oc4cnc5[nH]ccc5c4)c3)CC2)=C(c2ccc(Cl)cc2)C1 [Venetoclax] + CN(C)CCCOc1ccc(-c2ccc3ncc4c(c3c2)n(C2CCOCC2)c(=O)n4C)cn1 [AZD0156] (first compound max 1 µM, 7x7, partner max 1 µM) | -0.02 | -0.0057 | 0.0145 | 0.0619 | -0.0819 | -0.0277 | -0.0304 | -0.0325 | -0.0501 | -0.0111 | -0.026 | -0.0585 | -0.0389 | 0.0618 | -0.0004 | -0.0214 | -0.0382 | -0.0142 | -0.0674 | -0.0468
12 | CC1(C)CCC(CN2CCN(c3ccc(C(=O)NS(=O)(=O)c4ccc(NCC5CCOCC5)c([N+](=O)[O-])c4)c(Oc4cnc5[nH]ccc5c4)c3)CC2)=C(c2ccc(Cl)cc2)C1 [Venetoclax] + COc1cc(Nc2ncc3c(n2)-c2ccc(Cl)cc2C(c2c(F)cccc2OC)=NC3)ccc1C(=O)O [Alisertib] (first compound max 1 µM, 7x7, partner max 10 µM) | -0.0602 | 0.0437 | 0.0554 | 0.192 | -0.0247 | 0.003 | -0.0147 | -0.0088 | 0.0442 | 0.165 | -0.017 | 0.0181 | -0.0241 | 0.135 | -0.0413 | -0.0329 | -0.0385 | -0.0335 | -0.0613 | 0.0112
